Data taken from patent publication US20180194762A1 (Pharmacyclics LLC, priority 2017, published 2018).
Like-named read-outs stand apart in the source and are kept apart here.

Key:
Assay type in all cases: biochemical
Btk = target: T1, Btk (Homo sapiens, UniProt Q06187); experiment: Btk in vitro inhibitory activity (one of Method A TR-FRET, Method B electrophoretic mobility shift, Method C radiometric filter binding)
T1 construct: purified from insect cells as a full-length construct containing a N-terminal 6X-His tag; His6 (N); made in house; host or cells: insect cells (Method C)
How it was run: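 Three alternative formats were used. A radiometric filter-binding read used 8 nM full-length His-BTK with 0.2 mg/mL poly(Glu-Tyr) 4:1 (C); microfluidic separation of 1 μM FAM-peptide by 1 nM BTK gave IC50 from 12-point curves (B); TR-FRET at Km ATP, 0.5 nM Btk, gave Ki(app)-derived IC50 (A).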

panel of kinases = target: T2, panel of kinases (Homo sapiens, UniProt P51813); experiment: Inhibition of a panel of kinases (in vitro HotSpot kinase assay, 33P-ATP, 1 μM ATP), other kinases; settings: BMX wild-type, read-out: BMX-WT IC50
T2 sequence (P51813 1-675): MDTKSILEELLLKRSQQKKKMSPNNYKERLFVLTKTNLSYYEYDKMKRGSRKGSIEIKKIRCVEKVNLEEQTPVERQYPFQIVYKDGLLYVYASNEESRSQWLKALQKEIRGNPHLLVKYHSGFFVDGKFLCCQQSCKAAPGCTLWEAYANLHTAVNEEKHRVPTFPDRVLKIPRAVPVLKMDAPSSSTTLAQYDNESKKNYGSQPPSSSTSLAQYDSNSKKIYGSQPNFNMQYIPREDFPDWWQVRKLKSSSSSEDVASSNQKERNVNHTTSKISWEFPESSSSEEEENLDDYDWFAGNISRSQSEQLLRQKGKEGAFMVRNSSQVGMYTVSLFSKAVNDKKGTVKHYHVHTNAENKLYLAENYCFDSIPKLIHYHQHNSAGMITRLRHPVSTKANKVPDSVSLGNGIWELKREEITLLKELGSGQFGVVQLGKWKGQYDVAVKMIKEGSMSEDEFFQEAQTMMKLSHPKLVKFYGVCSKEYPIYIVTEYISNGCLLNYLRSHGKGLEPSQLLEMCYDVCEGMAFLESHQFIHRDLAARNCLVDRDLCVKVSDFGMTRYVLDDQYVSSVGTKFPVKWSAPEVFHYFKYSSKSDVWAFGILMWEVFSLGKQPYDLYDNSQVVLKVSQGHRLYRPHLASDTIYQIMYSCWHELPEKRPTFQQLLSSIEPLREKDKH
How it was run: (§1)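 At 1 μM ATP spiked with 33P-ATP, substrate phosphorylation by the purified enzymes gives the extent of inhibition.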

TEC = target: T3, TEC (Homo sapiens, UniProt P42680); experiment: Inhibition of a panel of kinases (in vitro HotSpot kinase assay, 33P-ATP, 1 μM ATP); settings: for IC50: HotSpot kinase assay, 1 μM ATP; for TEC/Btk: ratio of TEC IC50 to Btk IC50 (selectivity)
T3 sequence (P42680 1-631): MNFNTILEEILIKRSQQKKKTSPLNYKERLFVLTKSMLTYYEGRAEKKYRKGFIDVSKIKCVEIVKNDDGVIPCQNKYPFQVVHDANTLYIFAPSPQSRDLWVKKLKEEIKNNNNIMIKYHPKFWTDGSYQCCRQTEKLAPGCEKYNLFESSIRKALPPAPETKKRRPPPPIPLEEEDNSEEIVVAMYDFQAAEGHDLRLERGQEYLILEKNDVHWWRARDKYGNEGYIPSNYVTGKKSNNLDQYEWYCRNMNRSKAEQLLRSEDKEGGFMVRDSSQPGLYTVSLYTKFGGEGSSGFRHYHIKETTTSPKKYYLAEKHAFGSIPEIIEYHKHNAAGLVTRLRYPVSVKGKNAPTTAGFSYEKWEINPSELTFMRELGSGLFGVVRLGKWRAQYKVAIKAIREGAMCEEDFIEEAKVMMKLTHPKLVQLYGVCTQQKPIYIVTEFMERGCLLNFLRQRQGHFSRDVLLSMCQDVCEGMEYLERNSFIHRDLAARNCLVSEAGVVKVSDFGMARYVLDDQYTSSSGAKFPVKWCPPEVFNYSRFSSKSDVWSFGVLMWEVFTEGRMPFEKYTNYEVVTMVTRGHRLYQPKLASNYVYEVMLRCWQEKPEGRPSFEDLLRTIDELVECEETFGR
How it was run: as §1

[1] = method is one of A, B or C, not stated which, read-out: IC50 values against Btk
[2] = wild-type Btk, read-out: Btk-WT IC50

T1 sequence (Q06187 whole entry): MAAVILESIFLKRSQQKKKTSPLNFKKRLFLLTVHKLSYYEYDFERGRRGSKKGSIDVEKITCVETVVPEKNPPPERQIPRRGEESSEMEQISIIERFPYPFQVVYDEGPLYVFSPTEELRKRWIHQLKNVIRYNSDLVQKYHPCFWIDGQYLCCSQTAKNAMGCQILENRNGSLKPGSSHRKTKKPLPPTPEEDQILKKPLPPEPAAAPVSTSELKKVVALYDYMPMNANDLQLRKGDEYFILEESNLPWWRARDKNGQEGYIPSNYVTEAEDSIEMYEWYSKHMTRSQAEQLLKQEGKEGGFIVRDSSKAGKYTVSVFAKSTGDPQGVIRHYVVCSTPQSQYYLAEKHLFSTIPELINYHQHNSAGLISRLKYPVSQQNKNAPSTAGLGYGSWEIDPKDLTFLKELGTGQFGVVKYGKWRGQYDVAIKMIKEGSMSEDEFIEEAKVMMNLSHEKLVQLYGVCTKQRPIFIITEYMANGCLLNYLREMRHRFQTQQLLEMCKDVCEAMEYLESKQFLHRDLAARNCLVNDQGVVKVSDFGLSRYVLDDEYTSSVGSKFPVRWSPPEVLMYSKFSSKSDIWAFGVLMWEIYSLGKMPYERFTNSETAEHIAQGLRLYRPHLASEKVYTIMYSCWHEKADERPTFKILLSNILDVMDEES

IC50 (Btk; [1]) [nM]	IC50 (Btk; [2]) [nM]	IC50 (panel of kinases) [nM]	IC50 (TEC) [nM]	TEC/Btk (TEC)	Compound
< 10	1.93	1040	1060	549	C[C@H]1CC[C@@H](Nc2n[nH]c3nccc(-c4ccc(CNC(=O)c5cc(C(C)(C)C)on5)c(F)c4)c23)CN1C(=O)N(C)C [Example 145, (2S,5R)-5-{[4-(4-{[(5-tert-butyl-1,2-oxazol-3-yl)formamido]methyl}-3-fluorophenyl)-1H-pyrazolo[3,4-b]pyridin-3-yl]amino}-N,N,2-trimethylpiperidine-1-carboxamide]
–	1.43	1920	4170	–	CN(Cc1ccc(-c2ccnc3[nH]nc(N4CC[C@@H](N)C4)c23)cc1F)C(=O)c1nc(C(C)(C)C)no1 [Example 334, (R)-N-({4-[3-(3-aminopyrrolidin-1-yl)-1H-pyrazolo[3,4-b]pyridin-4-yl]-2-fluorophenyl}methyl)-3-tert-butyl-N-methyl-1,2,4-oxadiazole-5-carboxamide]
–	1.49	5700	8960	6013	C[C@@H](NC(=O)c1nc(C(C)(C)C)no1)c1ccc(-c2ccnc3[nH]nc(N4CCS(=O)(=O)CC4)c23)cc1 [Example 220, 3-tert-butyl-N-[(1R)-1-{4-[3-(1,1-dioxo-1λ^6-thiomorpholin-4-yl)-1H-pyrazolo[3,4-b]pyridin-4-yl]phenyl}ethyl]-1,2,4-oxadiazole-5-carboxamide]
–	> 1000	> 10000	> 10000	>10000	CC(=O)N1CCC(Nc2n[nH]c3nccc(-c4ccc([C@@H](C)NC(=O)c5cc(C(C)(C)O)on5)cc4)c23)CC1 [Example 204, N-[(1R)-1-(4-{3-[(1-acetylpiperidin-4-yl)amino]-1H-pyrazolo[3,4-b]pyridin-4-yl}phenyl)ethyl]-5-(2-hydroxypropan-2-yl)-1,2-oxazole-3-carboxamide]
–	> 10000	> 10000	> 10000	–	CC(C)(C)c1nc(C(=O)NC(C)(C)c2ccc(-c3ccnc4[nH]nc(N[C@@H]5CCNC5)c34)cc2)no1 [Example 122, 5-tert-butyl-N-{2-[4-(3-{[(3R)-pyrrolidin-3-yl]amino}-1H-pyraozlo[3,4-b]pyridin-4-yl)phenyl]propan-2-yl}-1,2,4-oxadiazole-3-carboxamide]
< 10	0.889	1280	806	907	CN(C)C(=O)N[C@@H]1CCN(c2n[nH]c3nccc(-c4ccc(CNC(=O)c5noc(C(C)(C)C)n5)c(F)c4)c23)C1 [Example 132, 5-tert-butyl-N-[(4-{3-[(3R)-3-[(dimethylcarbamoyl)amino]pyrrolidin-1-yl]-1H-pyrazolo[3,4-b]pyridin-4-yl}-2-fluorophenyl)methyl]-1,2,4-oxaidazole-3-carboxamide]
< 10	0.359	137	121	337	C[C@H]1CC[C@@H](Nc2n[nH]c3nccc(-c4ccc(CNC(=O)c5noc(C(C)(C)C)n5)c(F)c4)c23)CN1C(=O)N(C)C [Example 67, (2S,5R)-5-{[4-(4-{[(5-tert-butyl-1,2,4-oxadiazol-3-yl)formamido]methyl}-3-fluorophenyl)-1H-pyrazolo[3,4-b]pyridin-3-yl]amino}-N,N,2-trimethylpiperidine-1-carboxamide]
–	42.2	> 10000	> 10000	>100	CC(C)(C)c1noc(C(=O)NC2(c3ccc(-c4ccnc5[nH]nc(N[C@@H]6CCNC6)c45)cc3)CC2)n1 [Example 71, 3-tert-butyl-N-{1-[4-(3-{[(3R)-pyrrolidin-3-yl]amino}-1H-pyrazolo[3,4-b]pyridin-4-yl)phenyl]cyclopropyl}-1,2,4-oxadiazole-5-carboxamide]
–	89.3	> 10000	> 10000	>100	C[C@@H]1[C@H](Nc2n[nH]c3nccc(-c4ccc(CNC(=O)c5noc(C(C)(C)C)n5)c(F)c4)c23)CCCN1C(=O)N(C)C [Example 125, (2R,3R)-3-{[4-(4-{[(5-tert-butyl-1,2,4-oxadiaozl-3-yl) formamido]methyl}-3-fluorophenyl)-1H-pyrazolo[3,4-b]pyridin-3-yl]amino}-N,N,2-trimethylpiperidine-1-carboxamide]
–	54.7	5770	9390	–	C=CC(=O)NC1CCN(c2n[nH]c3nccc(-c4ccc([C@@H](C)NC(=O)c5cc(C(C)(C)O)on5)cc4)c23)CC1 [Example 364, 5-(2-hydroxypropan-2-yl)-N-{(1R)-1-[4-(3-{4-[(prop-2-enoyl)amino]piperidin-1-yl}-1H-pyrazolo[3,4-b]pyridin-4-yl)phenyl]ethyl}-1,2-oxazole-3-carboxamide]
–	639	111	407	1	C=CC(=O)N1CC[C@@H](Nc2n[nH]c3nccc(-c4ccc(NC(=O)Nc5noc(C(C)(C)C)n5)c(F)c4)c23)C1 [Example 156, 3-(5-tert-butyl-1,2,4-oxadiazol-3-yl)-1-[2-fluoro-4-(3-{[(3R)-1-(prop-2-enoyl)pyrrolidin-3-yl]amino}-1H-pyrazolo[3,4-b]pyridin-4-yl)phenyl]urea]
–	3.2	7440	2960	925	CC(C)(C)c1nc(C(=O)NCc2ccc(-c3ccnc4[nH]nc(N[C@H]5CCNC5)c34)cc2F)no1 [Compound 50, 5-tert-butyl-N-{[2-fluoro-4-(3-{[(3S)-pyrrolidin-3-yl]amino}-1H-pyrazolo[3,4-b]pyridin-4-yl)phenyl]methyl}-1,2,4-oxadiazole-3-carboxamide]
< 10	4.07	48	100	24	CC#CC(=O)N1CC[C@@H](Nc2n[nH]c3nccc(-c4ccc(CNC(=O)c5ccc(OC)cc5)c(F)c4)c23)C1 [Example 112, N-{[4-(3-{[(3R)-1-(but-2-ynoyl)pyrrolidin-3-yl]amino}-1H-pyrazolo[3,4-b]pyridin-4-yl)-2-fluorophenyl]methyl}-4-methoxybenzamide]
–	3.33	1420	3210	–	CC(C)(C)c1cc(C(=O)NCc2ccc(-c3ccnc4[nH]nc(N5CC[C@@H](N)C5)c34)cc2F)no1 [Example 307, (R)-N-({4-[3-(3-aminopyrrolidin-1-yl)-1H-pyrazolo[3,4-b]pyridin-4-yl]-2-fluorophenyl}methyl)-5-tert-butyl-1,2-oxazole-3-carboxamide]
–	10.4	280	1710	164	CN(C)C(=O)N1CC[C@H](Nc2n[nH]c3nccc(-c4ccc(CNC(=O)c5noc(C(C)(C)C)n5)c(F)c4)c23)C1 [Example 113, 5-tert-butyl-N-{[4-(3-{[(3S)-1-(dimethylcarbamoyl)pyrrolidin-3-yl]amino}-1H-pyrazolo[3,4-b]pyridin-4-yl)-2-fluorophenyl]methyl}-1,2,4-oxadiazole-3-carboxamide]
–	1.76	16	55	31	C=CC(=O)N1CC[C@@H](Nc2n[nH]c3nccc(-c4ccc(CNC(=O)c5ccc(C)cc5)c(F)c4)c23)C1 [Compound 34, (R)—N-(4-(3-((1-acryloylpyrrolidin-3-yl)amino)-1H-pyrazolo[3,4-b]pyridin-4-yl)-2-fluorobenzyl)-4-methylbenzamide]
